# Target: T1, human PAH with the R408W mutation (Homo sapiens, UniProt P00439, R408W)
# T1 construct: expressed in transfected cells
# T1 sequence (P00439 1-452 R408W): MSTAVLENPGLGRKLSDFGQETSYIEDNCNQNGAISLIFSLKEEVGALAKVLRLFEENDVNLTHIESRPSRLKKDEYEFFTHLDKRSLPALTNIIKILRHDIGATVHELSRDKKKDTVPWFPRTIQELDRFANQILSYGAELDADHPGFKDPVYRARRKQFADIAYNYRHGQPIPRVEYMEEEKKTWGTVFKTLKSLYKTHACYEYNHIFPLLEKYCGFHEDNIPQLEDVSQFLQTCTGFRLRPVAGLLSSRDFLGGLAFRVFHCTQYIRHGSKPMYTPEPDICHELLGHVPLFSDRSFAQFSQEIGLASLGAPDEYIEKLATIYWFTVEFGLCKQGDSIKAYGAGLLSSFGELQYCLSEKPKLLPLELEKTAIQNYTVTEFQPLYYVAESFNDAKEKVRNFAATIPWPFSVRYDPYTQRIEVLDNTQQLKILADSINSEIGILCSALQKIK
# Test: Cell Based Phenylalanine Flux Assay
# Conditions: A375 cells expressing human R408W PAH; 24 hrs compound incubation; 13C-Tyrosine by LC-MS; average where tested multiple times; read-out: AC50
row,Structure (SMILES),AC50 [nM]
1,Cc1nc(C(C)(C)C)oc1C(=O)N1CCc2[nH]cnc2[C@H]1c1nc2ccccc2s1 [Example 1431],< 500
2,"Cc1nc(C(C)(C)C)oc1C(=O)N1CCc2[nH]cnc2[C@@H]1c1nc2ccccc2s1 [Example 1432, (R)-(4-(benzo[d]thiazol-2-yl)-6,7-dihydro-1H-imidazo[4,5-c]pyridin-5(4H)-yl)(2-(tert-butyl)-4-methyloxazol-5-yl)methanone]",1000 to 5000
3,Cc1nc(C(C)(C)C)oc1C(=O)N1CCc2[nH]cnc2[C@H]1c1nc2c(F)cccc2s1 [Example 1433],500 to 1000
4,"Cc1nc(C(C)(C)C)oc1C(=O)N1CCc2[nH]cnc2[C@@H]1c1nc2c(F)cccc2s1 [Example 1434, (R)-(2-(tert-butyl)-4-methyloxazol-5-yl)(4-(4-fluorobenzo[d]thiazol-2-yl)-6,7-dihydro-1H-imidazo[4,5-c]pyridin-5(4H)-yl)methanone]",1000 to 5000
5,CC(C)(O)c1ncc(C(=O)N2CCc3[nH]cnc3[C@H]2c2nc3ccccc3s2)s1 [Example 1435],< 500
6,"CC(C)(O)c1ncc(C(=O)N2CCc3[nH]cnc3[C@@H]2c2nc3ccccc3s2)s1 [Example 1436, (R)-(4-(benzo[d]thiazol-2-yl)-6,7-dihydro-1H-imidazo[4,5-c]pyridin-5(4H)-yl)(2-(2-hydroxypropan-2-yl)thiazol-5-yl)methanone]",1000 to 5000
7,"c1cnc(N2CCc3[nH]cnc3[C@@H]2c2nc3ccccc3s2)nc1 [Example 1437, (R)-2-(5-(pyrimidin-2-yl)-4,5,6,7-tetrahydro-1H-imidazo[4,5-c]pyridin-4-yl)benzo[d]thiazole]",1000 to 5000
8,c1cnc(N2CCc3[nH]cnc3[C@H]2c2nc3ccccc3s2)nc1 [Example 1438],< 500
9,O=C(c1nnc(-c2ccccn2)o1)N1CCc2[nH]cnc2[C@H]1c1nc2ccccc2s1 [Example 1439],< 500
10,"O=C(c1nnc(-c2ccccn2)o1)N1CCc2[nH]cnc2[C@@H]1c1nc2ccccc2s1 [Example 1440, (R)-(4-(benzo[d]thiazol-2-yl)-6,7-dihydro-1H-imidazo[4,5-c]pyridin-5(4H)-yl)(5-(pyridin-2-yl)-1,3,4-oxadiazol-2-yl)methanone]",1000 to 5000
11,"O=C(c1ocnc1-c1ccccc1)N1CCc2[nH]cnc2[C@@H]1c1nc2ccccc2s1 [Example 1441, (R)-(4-(benzo[d]thiazol-2-yl)-6,7-dihydro-1H-imidazo[4,5-c]pyridin-5(4H)-yl)(4-phenyloxazol-5-yl)methanone]",> 5000
12,O=C(c1ocnc1-c1ccccc1)N1CCc2[nH]cnc2[C@H]1c1nc2ccccc2s1 [Example 1442],500 to 1000
13,O=C(c1nnc(C2CC2)o1)N1CCc2[nH]cnc2[C@H]1c1nc2c(F)cccc2s1 [Example 1443],< 500
14,"O=C(c1nnc(C2CC2)o1)N1CCc2[nH]cnc2[C@@H]1c1nc2c(F)cccc2s1 [Example 1444, (R)-(5-cyclopropyl-1,3,4-oxadiazol-2-yl)(4-(4-fluorobenzo[d]thiazol-2-yl)-6,7-dihydro-1H-imidazo[4,5-c]pyridin-5(4H)-yl)methanone]",1000 to 5000
15,"Cc1nc(-c2ccccn2)oc1C(=O)N1CCc2[nH]cnc2[C@H]1c1nc2c(F)cccc2s1 [Example 1445, (S)-(4-(4-fluorobenzo[d]thiazol-2-yl)-6,7-dihydro-1H-imidazo[4,5-c]pyridin-5(4H)-yl)(4-methyl-2-(pyridin-2-yl)oxazol-5-yl)methanone]",< 500
16,"Cc1nc(-c2ccccn2)oc1C(=O)N1CCc2[nH]cnc2[C@@H]1c1nc2c(F)cccc2s1 [Example 1446, (R)-(4-(4-fluorobenzo[d]thiazol-2-yl)-6,7-dihydro-1H-imidazo[4,5-c]pyridin-5(4H)-yl)(4-methyl-2-(pyridin-2-yl)oxazol-5-yl)methanone]",> 5000
17,"CC(C)(O)c1ncc(C(=O)N2CCc3[nH]cnc3[C@@H]2c2nc3ccccc3s2)o1 [Example 1447, (R)-(4-(benzo[d]thiazol-2-yl)-6,7-dihydro-1H-imidazo[4,5-c]pyridin-5(4H)-yl)(2-(2-hydroxypropan-2-yl)oxazol-5-yl)methanone]",1000 to 5000

# Reference: patent publication US20250171438A1 (Agios Pharmaceuticals, Inc., priority 2022, published 2025)
